Assay: Case reports: glutamate modulating agent added to medication of patients with borderline personality disorder and self-injurious behavior
Type: in vivo, human
Text: We describe two patients with borderline personality disorder and prominent cutting behaviors refractory to psychopharmacologic interventions.
Patient 1 was a person with a history of post-traumatic stress disorder and borderline personality disorder. […] They were previously treated with intensive psychotherapy, cognitive behavioral therapy, and pharmacotherapy. Medication management included treatment trials, either alone or in combination, of the following medications: CELEXA (citraloprom HBr), PROZAC (fluoxetine HCl), REMERON (mirtazapine), ZYPREXA (olanzapine), KLONOPIN (clonazepam), LAMICTAL (lamotrigine), RISPERDAL (risperidone), Abilify (aripiprazole), EFFEXOR (venlafaxine HCl), XANAX (alprazolam), WELLBUTRIN (bubroprion HCl), and ATIVAN (lorazepam). Medications provided little relief and their cutting behaviors continued on a daily to weekly basis. Riluzole, a glutamate modulating agent, was added to their medication regimen which consisted of LEXAPRO (escitalopram) 20 mg a day and KLONOPIN 1 mg at bedtime. Riluzole was dosed at 50 mg twice a day. […] This attenuation in their self-injurious behaviors occurred between week 2 and 3 of treatment with riluzole.
Despite the beneficial effects of riluzole with regard to the cutting/self-injurious behaviors (as well as cravings to cut), Patient 1 requested to stop the riluzole secondary to the sedation. Within 1 week of stopping the riluzole, their desire and cravings to cut returned. They were then treated with N-Acetyl Cysteine (NAC), another agent thought to modulate glutamatergic function.
Patient 2 was a person with a long history of borderline personality disorder, major depression, obsessive-compulsive disorder and generalized anxiety disorder. […] These self-injurious behaviors and the cravings to cut worsened under times of stress. They were previously treated with intensive psychotherapy, cognitive behavioral therapy, and pharmacotherapy. Medication management included treatment trials, either alone or in combination, of the following medications: EFFEXOR, ZOLOFT (sertaline HCl), TOPAMAX (topirimate), ATIVAN (lorazepam), trazodone, ABILIFY AND NEURONTIN (gabapentin). Riluzole, a glutamate modulating agent, was added to their medication regimen which consisted of ZOLOFT 200 mg each day, RISPERDAL (risperidone) 2 mg at bedtime, KLONOPIN 1 mg three times per day and PROVIGIL (modafinil) 200 mg a day. Riluzole was dosed at 50 mg twice a day. […] Similar to the first case, the cessation in self-injurious behaviors occurred between week 2 and 3 of treatment with riluzole.

[1] = Patient 1, riluzole 50 mg twice a day

SMILES	time of treatment until desire to cut remitted (Patient 1, NAC after stopping riluzole) [weeks]	period without any self-injurious behaviors (Patient 1, on NAC)	self-injurious cravings (self-report) (Patient 1, on NAC, desire to cut not completely eradicated as while on riluzole)	time after stopping treatment until desire and cravings to cut returned (Patient 1, after stopping riluzole) [week]	adverse effect while on treatment [1]	time on treatment without a single episode or desire to harm themself [1]	cravings to cut / self-injurious behaviors (patient report) (Patient 1, riluzole 50 mg twice a day added to LEXAPRO 20 mg a day and KLONOPIN 1 mg at bedtime)	period without any self-injurious behaviors (Patient 2, riluzole 50 mg twice a day)	desire to engage in self-injurious behaviors (patient report) (Patient 2, riluzole 50 mg twice a day added to ZOLOFT 200 mg, RISPERDAL 2 mg, KLONOPIN 1 mg three times per day, PROVIGIL 200 mg)	self-injurious behavior (both cases (two patients with borderline personality disorder and cutting behaviors refractory to psychopharmacologic interventions), after initiating riluzole)
CC(=O)N[C@@H](CS)C(=O)O [NAC, N-Acetyl Cysteine]	≤ 2	over three months	significantly attenuated							
Nc1nc2ccc(OC(F)(F)F)cc2s1 [riluzole, Riluzole]				≤ 1	significant sedation	approximately eight weeks	complete cessation of cravings to cut	over six months	complete cessation	significantly decreased

From patent publication US20060167068A1, “Method of treating self-injurious behavior with glutamate modulating agents” (priority 2005, published 2006)
